# According to patent US10988466B2, “Heterocyclic derivatives useful as SHP2 inhibitors” (Jacobio Pharmaceuticals Co., Ltd., priority 2017, dated 2021):
# Tests used:
# MV-4-11 = experiment: Cell proliferation assay (MTS/PMS); format: cell-based; conditions: Homo sapiens, MV4-11; MV-4-11 cell proliferation, MTS/PMS readout at day 8, compounds added 24 hours after plating; read-out: IC50
# SHP2 = molecular target: T1, SHP2 (Homo sapiens, UniProt Q06124); experiment: biochemical; conditions: read-out: SHP2 inhibition (%)@0.1 μM;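 also: compounds preincubated 30 min at room temperature in the assay mixture, activity referenced to a 0.5% (v/v) DMSO control taken as 100%, run in triplicate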
# T1 sequence (Q06124 1-593): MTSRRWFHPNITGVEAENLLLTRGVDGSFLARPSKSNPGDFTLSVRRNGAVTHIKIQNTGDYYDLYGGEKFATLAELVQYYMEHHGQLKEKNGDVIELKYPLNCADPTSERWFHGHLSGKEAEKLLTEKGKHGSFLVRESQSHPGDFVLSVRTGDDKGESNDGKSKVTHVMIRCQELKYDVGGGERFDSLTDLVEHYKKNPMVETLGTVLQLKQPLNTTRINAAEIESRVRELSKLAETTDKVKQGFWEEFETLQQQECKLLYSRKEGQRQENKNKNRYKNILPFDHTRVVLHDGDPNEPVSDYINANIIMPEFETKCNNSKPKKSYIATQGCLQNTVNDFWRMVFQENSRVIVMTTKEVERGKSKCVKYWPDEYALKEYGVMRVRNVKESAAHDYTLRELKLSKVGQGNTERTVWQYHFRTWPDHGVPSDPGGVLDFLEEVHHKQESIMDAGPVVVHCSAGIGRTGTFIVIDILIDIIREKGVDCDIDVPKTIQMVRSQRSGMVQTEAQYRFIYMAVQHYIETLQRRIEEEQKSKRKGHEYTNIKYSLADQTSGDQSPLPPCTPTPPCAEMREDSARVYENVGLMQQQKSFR
Structure (SMILES),IC50 (MV-4-11),inhibition at 0.1 µM (SHP2)
"Nc1nc(N2CCC3(CC2)Cc2ncccc2[C@H]3N)cnc1Sc1ccnc(Cl)c1Cl [Example 105, (S)-1′-(6-amino-5-((2,3-dichloro-pyridin-4-yl)thio)pyrazin-2-yl)-5,7-dihydrospiro[cyclo-penta[b]pyridine-6,4′-piperidin]-5-amine]",11 nM,
"Nc1cccc(Sc2cnc(N3CCC4(CC3)Cc3ncccc3C4N)cn2)c1Cl (stereo not shown) [Example 128, 1′-(5-((3-amino-2-chlorophenyl)thio)pyrazin-2-yl)-5,7-dihydrospiro [cyclopenta[b]pyridine-6,4′-piperidin]-5-amine]",,84%
"Nc1nc(N2CCC3(CC2)Cc2ccncc2[C@H]3N)cnc1Sc1ccnc(N)c1Cl [Example 21, (S)-1′-(6-amino-5-((2-amino-3-chloropyridin-4-yl)thio)pyrazin-2-yl)-5,7-dihydrospiro[cyclopenta [c]pyridine-6,4′-piperidin]-7-amine]",,49%
"Nc1nc(N2CCC3(CC2)c2ncccc2C[C@H]3N)cnc1Sc1ccnc(N)c1Cl [Example 4, (R)-1′-(6-amino-5-((2-amino-3-chloropyridin-4-yl)thio)pyrazin-2-yl)-5,6-dihydrospiro[cyclopenta[b]pyridine-7,4′-piperidin]-6-amine]",,20%
"CC(=O)N1CC(F)(F)c2c(Sc3ncc(N4CCC5(CC4)Cc4ccccc4[C@H]5N)nc3N)cccc21 [Example 78, (S)-1-(4-((3-amino-5-(1-amino-1,3-dihydrospiro[indene-2,4′-piperidin]-1′-yl)pyrazin-2-yl)thio)-3,3-difluoroindolin-1-yl)ethan-1-one]",,67%
"Nc1nc(N2CCC3(CC2)Cc2ccc(C(=O)N4CCCCC4)cc2[C@H]3N)cnc1Sc1ccnc(N)c1Cl [Example 59, (S)-(1-amino-1′-(6-amino-5-((2-amino-3-chloropyridin-4-yl)thio)pyrazin-2-yl)-1,3-dihydrospiro [indene-2,4′-piperidin]-6-yl)(piperidin-1-yl)methanone]",,69%

# Second part, the molecule after the results:
IC50 (MV-4-11),inhibition at 0.1 µM (SHP2),Structure (SMILES)
10.4 nM,71%,"Nc1nccc(Sc2cnc(N3CCC4(CC3)Oc3ccccc3[C@H]4N)cn2)c1Cl [Example 56, (R)-1′-(5-((2-amino-3-chloropyridin-4-yl)thio)pyrazin-2-yl)-3H-spiro[benzofuran-2,4′-piperidin]-3-amine]"
,28%,"Nc1nc(N2CCC3(CC2)c2cccnc2C[C@H]3N)cnc1Sc1ccnc(N)c1Cl [Example 72, (R)-1′-(6-amino-5-((2-amino-3-chloropyridin-4-yl)thio)pyrazin-2-yl)-6,7-dihydrospiro[cyclopenta [b]pyridine-5,4′-piperidin]-6-amine]"
,74%,"COc1ccc2c(c1)CC1(CCN(c3cnc(Sc4ccnc(N)c4Cl)c(N)n3)CC1)[C@@H]2N [Example 11, (S)-1′-(6-amino-5-((2-amino-3-chloropyridin-4-yl)thio)pyrazin-2-yl)-5-methoxy-1,3-dihydrospiro [indene-2,4′-piperidin]-1-amine]"
,71%,"Nc1cnccc1Sc1cnc(N2CCC3(CC2)Cc2ncccc2[C@H]3N)cn1 [Example 108, (S)-1′-(5-((3-amino-pyridin-4-yl)thio)pyrazin-2-yl)-5,7-dihydrospiro [cyclopenta[b]pyridine-6,4′-piperidin]-5-amine]"
,77%,"Nc1cccc(Sc2cnc(N3CCC4(CC3)Cc3ccccc3[C@H]4N)cn2)c1Cl [Example 50, (S)-1′-(5-((3-amino-2-chlorophenyl)thio)pyrazin-2-yl)-1,3-dihydrospiro [indene-2,4′-piperidin]-1-amine]"
,71%,"Nc1cnccc1Sc1ncc(N2CCC3(CC2)Cc2ncccc2[C@H]3N)nc1N [Example 109, (S)-1′-(6-amino-5-((3-aminopyridin-4-yl)thio)pyrazin-2-yl)-5,7-dihydrospiro[cyclo-penta[b]pyridine-6,4′-piperidin]-5-amine]"
